The structures appear in SMILES notation. ± gives the expanded uncertainty stated by the source.

Data set [1] is described as follows: xn = mol fraction of the nth substance listed. The following applies: 298.15 K, 101 kPa, Liquid; for viscosity: Capillary tube (Ostwald / Ubbelohde) method; for mass density: Pycnometric method; for speed of sound: ultra sonice interferometer.
Data set [2] in a line: refractive index (Na D-line) (dimensionless); xn = mol fraction of the nth substance listed. To be noted: 298.15 K, 101 kPa, Liquid, Standard Abbe refractometry.
The conditions of data set [3]: 298.15 K, 101 kPa, Liquid.
The nature of data set [4]: refractive index (Na D-line) (dimensionless). To be noted: 298.15 K; 101.33 kPa; Liquid; Standard Abbe refractometry.

`CC(=O)OCCC(C)C` [3-methylbutyl ethanoate] + ClCCl: in data set [1] (x2 = 0.6052), the viscosity (commonly the resistance of a fluid to flow) amounted to 0.633 ± 0.008 mPa·s; the mass density – broadly, the mass of a sample divided by its volume – came to 1043.3 ± 0.6 kg/m3; the speed of sound (in general, how fast a sound wave travels through the sample) amounted to 1115 ± 1 m/s. The refractive index (usually a measure of how strongly the sample bends light) in data set [2] (x2 = 0.6052) stood at 1.406 ± 0.001.
Consider `C1COCO1` [1,3-dioxolane], for which the viscosity in data set [3] (Capillary tube (Ostwald / Ubbelohde) method) was 0.588 ± 0.008 mPa·s. In addition, in data set [3] (Pycnometric method), the mass density worked out at 1057 ± 0.6 kg/m3. For the same compound, the speed of sound in data set [3] (ultra sonice interferometer) amounted to 1339 ± 1 m/s. In data set [4], the refractive index turned out to be 1.398 ± 0.001.
With `ClCCl` [dichloromethane] + CCCOC(C)=O, in data set [1] (x1 = 0.546), the viscosity turned out to be 0.518 ± 0.007 mPa·s, the mass density was 1053.5 ± 0.6 kg/m3 and the speed of sound turned out to be 1181 ± 1 m/s. The refractive index in data set [2] (x1 = 0.546) was found to be 1.397 ± 0.001.
On to `ClCCl` [dichloromethane] + CCCCOC(C)=O, for which, in data set [1] (x1 = 0.5777), the viscosity came out at 0.575 ± 0.008 mPa·s, the mass density came out at 1049.2 ± 0.6 kg/m3 and the speed of sound was 1181 ± 1 m/s. Further, the refractive index in data set [2] (x1 = 0.5777) turned out to be 1.403 ± 0.001.
As for `ClCCl` [dichloromethane] + COC(C)=O, in data set [1] (x1 = 0.4659), the viscosity worked out at 0.425 ± 0.007 mPa·s, the mass density came to 1078 ± 0.6 kg/m3 and the speed of sound was 1056 ± 1 m/s. In data set [2] (x1 = 0.4659), the refractive index worked out at 1.38 ± 0.001.
`ClCCl` [dichloromethane] + CCOC(C)=O: in data set [1] (x1 = 0.5092), the viscosity is recorded as 0.456 ± 0.007 mPa·s, the mass density was 1059.2 ± 0.6 kg/m3 and the speed of sound is 1059 ± 1 m/s. Also, the refractive index in data set [2] (x1 = 0.5092) stood at 1.388 ± 0.001.

Values taken from the NIST ThermoML archive (doi:10.1016/j.tca.2009.07.011).
